Results as given in PMC4523242 (Antiviral Research, 2014).
Like-named read-outs stand apart in the source and are kept apart here.

Tests used:
DENV2 replicon = assay: DENV2 Rluc reporter replicon inhibition assay in BHK-21/DENV2 cells; assay type: cell-based, Dengue virus type 2; details: for % replicon inhibition (Means ± SEM) DENV2: 50 μM, 24 h, BHK-21/DENV2 replicon cells; for EC50: Dengue virus
WNV replicon = assay: WNV Rluc reporter replicon inhibition assay in Vero/WNV cells; assay type: cell-based, West Nile virus; details: 24 h; for EC50: read-out: WNV replicon EC50; for % replicon inhibition (Means ± SEM) WNV: 50 μM
DENV2 [1] = assay: DENV2 infectivity in BHK-21 cells, plaque assay of supernatants; assay type: cell-based, Dengue virus type 2
[2] = molecular target: Renilla luciferase (Rluc) (Renilla reniformis, UniProt P27652); assay type: biochemical
DENV2 NS5 RdRP = DENV2 NS5 RdRP (Dengue virus type 2, UniProt P14340); assay: RNA-dependent RNA polymerase assay; assay type: biochemical
Cytotoxicity = details: African green monkey, naïve Vero cells
[3] = molecular target: DENV2 5'-RNA methyltransferase (NS5FL) (Dengue virus type 2, UniProt P14340); assay type: biochemical
DENV2 [4] = assay: Direct plaque assay; assay type: cell-based, Dengue virus type 2; details: MOI of 0.01
DENV2 NS2B-NS3 protease = molecular target: T1, DENV2 NS2B-NS3 protease (Dengue virus type 2, UniProt P14340); assay type: biochemical
T1 sequence (P14340 1476-1653 limits assumed): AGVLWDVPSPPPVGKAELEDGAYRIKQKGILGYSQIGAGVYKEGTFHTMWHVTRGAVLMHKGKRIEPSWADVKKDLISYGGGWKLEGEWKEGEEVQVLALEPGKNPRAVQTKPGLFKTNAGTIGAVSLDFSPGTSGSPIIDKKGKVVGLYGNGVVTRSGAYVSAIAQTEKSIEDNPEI
T1 sequence (P14340 1398-1437 limits assumed): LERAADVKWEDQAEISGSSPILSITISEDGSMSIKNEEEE

DENV2 [5] = assay: qRT-PCR of intracellular and extracellular DENV2 RNA in infected BHK-21 cells; assay type: cell-based, Dengue virus type 2; details: 5 μM, MOI of 1, 72 h
[6] = Viability of replicon expressing cells; details: hamster, BHK-21 cells expressing DENV2 replicon
Vero cells = assay: Cytotoxicity; details: read-out: WNV replicon CC50; Vero cells, 24 h
BHK-21 cells = assay: Cytotoxicity; details: read-out: DENV2 replicon CC50, 24 h
[7] = DENV2, BHK-21, 24 h, read-out: DENV2 replicon EC50
[8] = Vero/WNV replicon cells, Rluc, initial screening

Sequence of Renilla luciferase (Rluc) (P27652 whole entry, looked up): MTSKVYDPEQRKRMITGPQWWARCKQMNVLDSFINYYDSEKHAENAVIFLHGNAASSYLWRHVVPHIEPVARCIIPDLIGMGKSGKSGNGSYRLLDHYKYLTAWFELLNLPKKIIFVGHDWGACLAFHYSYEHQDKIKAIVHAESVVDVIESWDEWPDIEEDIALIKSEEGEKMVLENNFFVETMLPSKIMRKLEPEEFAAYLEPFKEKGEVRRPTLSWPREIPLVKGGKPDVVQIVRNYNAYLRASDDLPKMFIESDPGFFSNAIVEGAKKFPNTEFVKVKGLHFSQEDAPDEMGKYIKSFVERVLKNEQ

Molecule: CCN(CC)Cc1cc(Nc2ccnc3cc(Cl)ccc23)ccc1O [Compound 1, 4-[(7-chloroquinolin-4-yl)amino]-2(diethylaminomethyl)phenol]
- % replicon inhibition (Means ± SEM) DENV2 (DENV2 replicon; listed as AQ): 76.31 ± 1.60%
- EC50 (DENV2 replicon; [7]): 10.8 ± 1.43 µM
- EC50 (DENV2 replicon; DENV2, BHK-21, 48 h, read-out: EC50 DENV2 replicon replication): 7.41 ± 1.09 µM
- inhibition at 50 µM (WNV replicon; West Nile virus, Vero, read-out: % replicon inhibition (Means ± SEM) WNV, 50 μM, 24 h, Vero/WNV replicon cells): 96.3 ± 0.39%
- EC50 (WNV replicon; West Nile virus, Vero): 14.6 ± 2.21 µM
- plaque reduction, time of addition assay (DENV2 [1]; 5 μM added as late as 15 h post-infection, MOI of 1, supernatants at 72 h): ≥ 90%
- effect when added late, time of addition assay (DENV2 [1]; 5 μM added at 21 h post-infection and later, MOI of 1): lost its inhibitory effect
- reduction of plaque titer from DMSO control, order of addition assay (DENV2 [1]; 5 μM added post-infection, MOI of 1, 48 and 72 h post-infection): ≥ 90%
- plaque formation reduced (time course) (DENV2 [1]; 5 μM, MOI of 0.01, up to 96 h): ≥ 90%
- stability of AQ in infected cell culture (DENV2 [1]; concluded from time course of inhibition, 37 °C, post-infection): at least 96 h
- interference with Rluc enzyme activity [2]: did not interfere
- Inhibition of RdRP activity, positive-strand RNA synthesis (DENV2 NS5 RdRP; 50 μM, 60 min): 10.58 ± 0.94%
- inhibition at 50 µM (DENV2 NS5 RdRP; read-out: Inhibition of RdRP activity, negative-strand synthesis): -17.1 ± 4.37%
- CC50 at 24 h (Cytotoxicity): 24.4 ± 2.49 µM
- inhibition of formation of type I cap by NS5FL [3]: did not inhibit
- effect on DENV2 adsorption (DENV2 [4]; 5 μM during adsorption only): does not inhibit DENV2 adsorption
- virus titer reduction, direct plaque assay (DENV2 [4]; 10 μM during adsorption only): 69.23 ± 1.57%
- virus titer reduction, direct plaque assay (DENV2 [4]; 25 μM during adsorption only): 82.70 ± 2.48%
- effect on DENV2 protease (DENV2 NS2B-NS3 protease): no effect
- intracellular and extracellular DENV2 RNA levels (qRT-PCR) (DENV2 [5]): effectively inhibited DENV2 replication
- CC50 at 48 h [6]: 52.1 ± 4.25 µM

Molecule: Cl.ClCCN(CCCl)c1ccc(CCNc2ccnc3cc(Cl)ccc23)cc1 [Compound 4, Chloroquine ethyl phenyl mustard]
- % replicon inhibition (Means ± SEM) DENV2 (DENV2 replicon): > 99%
- % replicon inhibition (Means ± SEM) WNV (WNV replicon; Vero/WNV replicon cells): > 99%
- EC50 (WNV replicon; [8]): 1.55 ± 0.4 µM
- CC50 (Vero cells): 5.02 ± 1.23 µM
- CC50 (BHK-21 cells): 74.1 ± 21.5 µM

Molecule: CC(CCCN(CCCl)CCCl)Nc1ccnc2cc(Cl)ccc12 (stereo not drawn) [Compound 5, Chloroquine mustard]
- % replicon inhibition (Means ± SEM) DENV2 (DENV2 replicon): > 99%
- EC50 (DENV2 replicon; [7]): 2.9 ± 0.78 µM
- % replicon inhibition (Means ± SEM) WNV (WNV replicon; Vero/WNV replicon cells): > 99%
- EC50 (WNV replicon; West Nile virus, Vero): 2.95 ± 0.77 µM
- CC50 at 24 h (Cytotoxicity): 3.64 ± 0.93 µM

Molecule: Quinacrine mustard [Compound 9]
- % replicon inhibition (Means ± SEM) DENV2 (DENV2 replicon): > 99%
- % replicon inhibition (Means ± SEM) WNV (WNV replicon; Vero/WNV replicon cells): > 99%
- EC50 (WNV replicon; [8]): 0.36 ± 0.09 µM
- CC50 (Vero cells): 0.97 ± 0.11 µM
- CC50 (BHK-21 cells): 2.4 ± 0.63 µM
